# Patent publication US8362010B2, “Benzenesulfonanilide compounds suitable for treating disorders that respond to modulation of the serotonin 5-HT6 receptor” (Abbott GmbH & Co. KG, priority 2009, dated 2013)
# Where a name gives a salt, the structure may show the parent alone.
# Molecular target: T1, h-5-HT6 receptor (Homo sapiens, UniProt P50406)
# T1 construct: expressed in transfected cells; host or cells: HEK293
# Test: 5-HT6 receptor binding assay (displacement of [3H]-LSD)
# Conditions: membranes of HEK293 cells expressing h-5-HT6; 1 nM [3H]-LSD
# Method: Displacement of radioligands binding to the following cloned human receptors
# Cells from stable clonal cell lines expressing the corresponding receptor (5-HT6, α1-adrenergic, dopamine D2 or histamine H1 receptors) were washed with PBS (w/o Ca^++, Mg^++) and harvested in PBS with 0.02% EDTA. […] The pellets were stored at −80° C. until use. For membrane preparation, the thawed cell pellet was resuspended in ice-cold sucrose buffer (0.25 M sucrose, 10 mM Hepes (pH 7.4), 1 mM Phenylmethylsulfonyl fluoride (PMSF) in DMSO, 5 μg/ml Pepstatin-A, 3 mM EDTA, 0.025% Bacitracin) and homogenized with a Branson Sonifier W-250 (Settings: Timer 4; Output Control 3; Duty Cycle constant; 2 to 3 cycles). Cell disruption was checked with the aid of a microscope. […] The sucrose buffer supernatant was then centrifuged at 60.000 g for 1 h at 4° C. (Beckman Ultrazentrifuge XL 80). The pellet was resuspended in 30 ml ice-cold Tris buffer (20 mM TRIS (pH 7.4), 5 μg/ml Pepstatin A, 0.1 mM PMSF, 3 mM EDTA) by pipetting through a 10 ml serological pipet and centrifuged for 1 h at 4° C. at 60.000 g. A final resuspension was performed in a small volume of ice-cold Tris buffer (see above) by pressing through a serological pipet followed by ultrasonic treatment with a Branson Sonifier W-250 (Settings: Timer 1; Output Control 3; Duty Cycle constant; 1 cycle). Protein concentration was determined (BCA-Kit; Pierce) and aliquots stored at −80° C. or in liquid nitrogen for long-term storage.
# All receptor binding experiments were carried out in the corresponding assay buffer in a total volume of 200 μl in the presence of various concentrations of test compound (10^−5 M to 10^−9 M, tenfold serial dilution, duplicate determinations). The assays were terminated by filtration on polyethylenimine (PEI 0.1% or 0.3%) presoaked Packard Unifilter Plates (GF/C or GF/B) with a Tomtec MachIII U 96 well-plate harvester. After the plates had been dried for 2 h at 55° C. in a drying chamber scintillation cocktail (BetaPlate Scint; PerkinElmer) was added. Radioactivity was measured in a Microbeta Trilux two hours after the addition of the scintillation mixture. Data derived from liquid scintillation counting were analysed by iterative non-linear regression analysis with the use of the Statistical Analysis System (SAS): a program similar to “LIGAND” as described by Munson and Rodbard (Analytical Biochemistry 107, 220-239 (1980). […]
# Data derived from liquid scintillation counting were analyzed by iterative non-linear regression analysis with the use of the Statistical Analysis System (SAS): a program similar to “LIGAND” as described by Munson and Rodbard (Anal. Biochem. 1980, 107, 220-239). […] IC50, nH and Ki values were expressed as geometrical mean.
# T1 sequence (P50406 whole entry): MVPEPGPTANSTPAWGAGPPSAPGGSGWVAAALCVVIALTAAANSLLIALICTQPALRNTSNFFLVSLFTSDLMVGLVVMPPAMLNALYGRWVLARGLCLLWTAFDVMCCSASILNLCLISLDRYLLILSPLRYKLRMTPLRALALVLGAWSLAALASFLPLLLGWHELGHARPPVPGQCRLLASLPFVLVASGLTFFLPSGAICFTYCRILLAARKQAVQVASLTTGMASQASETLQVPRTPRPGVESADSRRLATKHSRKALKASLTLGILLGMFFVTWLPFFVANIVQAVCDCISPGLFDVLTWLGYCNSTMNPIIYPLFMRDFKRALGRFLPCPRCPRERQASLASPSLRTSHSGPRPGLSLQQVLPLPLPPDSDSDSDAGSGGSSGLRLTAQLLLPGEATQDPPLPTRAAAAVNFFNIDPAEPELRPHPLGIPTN
row,Ki,SMILES
1,< 0.01 µM,"Cc1ccc(NS(=O)(=O)c2ccccc2OC(F)F)cc1N1CCCN(C)CC1 [Example 8, 2-Difluoromethoxy-N-[4-methyl-3-(4-methyl-[1,4]diazepan-1-yl)-phenyl]-benzenesulfonamide hydrochloride]"
2,< 0.05 µM,"Cc1ccc(NS(=O)(=O)c2cccc(OC(F)F)c2)cc1N1CCCNCC1 [Example 7, N-(3-[1,4]Diazepan-1-yl-4-methyl-phenyl)-3-difluoromethoxy-benzenesulfonamide hydrochloride]"
3,< 0.01 µM,"COc1ccc(NS(=O)(=O)c2ccccc2OC(F)F)cc1N1CCCNCC1 [Example 3, N-(3-[1,4]Diazepan-1-yl-4-methoxy-phenyl)-2-difluoromethoxy-benzenesulfonamide hydrochloride]"
4,< 0.01 µM,"COc1ccc(NS(=O)(=O)c2cccc(OC(F)F)c2)cc1N1CCCNCC1 [Example 1, N-(3-[1,4]Diazepan-1-yl-4-methoxy-phenyl)-3-difluoromethoxy-benzenesulfonamide hydrochloride]"
